Counter-ions that a name gives are not always drawn. Like-named read-outs stand apart in the source and are kept apart here.
Assays:
[1] = target: T1, SOAT (Homo sapiens, UniProt Q3KNW5); parameters: method as in Geyer et al. (2007); conditions: uptake via SOAT, same SOAT-HEK293 cell line; ref Geyer et al. (2007); cited from earlier work
T1 construct: The full-length open reading frames of NTCP, ASBT, and SOAT were cloned; expressed in transfected cells; host or cells: Flp-In T-REX HEK293 (SOAT-HEK293), tetracycline-induced
T1 sequence (Q3KNW5 1-377): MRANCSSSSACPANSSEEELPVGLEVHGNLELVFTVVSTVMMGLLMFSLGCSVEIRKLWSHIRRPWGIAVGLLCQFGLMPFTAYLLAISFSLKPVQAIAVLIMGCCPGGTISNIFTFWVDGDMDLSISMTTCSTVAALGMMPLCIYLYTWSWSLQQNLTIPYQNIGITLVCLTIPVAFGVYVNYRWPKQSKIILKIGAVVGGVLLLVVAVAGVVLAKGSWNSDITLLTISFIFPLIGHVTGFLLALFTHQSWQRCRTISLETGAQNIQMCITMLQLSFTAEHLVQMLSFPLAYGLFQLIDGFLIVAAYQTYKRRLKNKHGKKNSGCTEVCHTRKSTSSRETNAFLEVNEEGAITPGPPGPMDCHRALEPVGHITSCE

[2] = target: T1, SOAT; test: Transport kinetics (concentration-dependent uptake) in SOAT-HEK293 cells; type: cell-based; conditions: uptake via SOAT, 1 min, 37°C
Method: Cells were washed three times with phosphate buffered saline (PBS) (137 mM NaCl, 2.7 mM KCl, 1.5 mM KH2PO4, 7.3 mM Na2HPO4, pH 7.4, 37°C). Afterward, cells were preincubated at 37°C with sodium transport buffer (containing 142.9 mM NaCl, 4.7 mM KCl, 1.2 mM MgSO4, 1.2 mM KH2PO4, 1.8 mM CaCl2, and 20 mM HEPES (all chemicals from Sigma-Aldrich), adjusted to pH 7.4), or with choline transport buffer (equimolar substitution of sodium chloride with choline chloride). Uptake experiments were initiated by replacing the preincubation buffer by 500 μL transport buffer containing the radiolabeled test compound and were performed at 37°C. Transport was terminated by removing the transport buffer and washing five-times with ice-cold PBS. Cell monolayers were lysed in 1 N NaOH with 0.1% SDS and the cell-associated radioactivity was determined by liquid scintillation counting. Protein content of individual wells was determined by Lowry assay as reported before ([Geyer et al., 2007]).
FIGURE 2 NTCP, ASBT, and SOAT transport kinetics. Concentration-dependent uptake was analyzed in NTCP-HEK293, ASBT-HEK293, and SOAT-HEK293 cells for the indicated substrates at increasing substrate concentrations. […] Uptake was analyzed for 1 min at 37°C. Afterward, the medium was removed and each cell monolayer was washed and processed to determine the protein content and cell-associated radioactivity. […]

[3] = test system: HDV; conditions: NTCP expressing HepG2 hepatoma cells, trans-inhibitory effect; ref Lowjaga et al., 2021; cited from earlier work

C[C@]12CC[C@H](OS(=O)(=O)O)CC1=CC[C@@H]1[C@@H]2CC[C@]2(C)C(=O)CC[C@@H]12 [DHEAS, Dehydroepiandrosterone sulfate]
Apparent K m [1]: 28.7 ± 3.9 µM | V max [1]: 1899 ± 81 pmol/mg protein/min

C[C@H](CCC(=O)NCCS(=O)(=O)O)[C@H]1CC[C@H]2[C@@H]3CC[C@@H]4C[C@H](O)CC[C@]4(C)[C@H]3CC[C@]12C [Taurolithocholic acid]
Apparent K m [2]: 19.3 ± 6.8 µM | V max [2]: 617 ± 57 pmol/mg protein/min | in vitro HDV infection [3]: inhibited in vitro HDV infection

— publication PMC8165160, “Substrate Specificities and Inhibition Pattern of the Solute Carrier Family 10 Members NTCP, ASBT and SOAT” (Frontiers in Molecular Biosciences, 2021)
